Each structure is given as a SMILES string.

One data set relates to mouse. Briefly: intraperitoneal acute toxicity test in mouse (Test Example 2). The settings on record: 14 days observation, five mice per group. The class given is in vivo, mouse (Slc: ddy male). As for the experimental part:
(§1) Fifty % inhibitory dose (ID50) in Passive Cutaneous Anaphylaxis (PCA) test in rat (Test Example 1) and Minimal Lethal Dose (MLD) in intraperitoneal acute toxicity test in mouse (Test Example 2) were determined for the typical compounds of the present invention as follows:
The intraperitoneal actute toxicity test was carried out using mouse for the chromene derivatives of the present invention. Normal Slc: ddy male 4 weeks mice were preliminarily breeded for a week at a breeding room and those weighing 25 to 27 g were subjected to the test. The test compounds were used by suspending in 0.5% aqueous solution of sodium carboxymethylcellulose. Ten ml/kg was administered intraperitoneally through the right abdomen of the animal using the prescribed needle (five mice per group). The lethal dose was presumed by the observation during 14 days after administration.

In data set [1] the test system is passive cutaneous anaphylaxis by homocytotropic antibody (HTA). Briefly: Passive Cutaneous Anaphylaxis (PCA) test in rat (Test Example 1). The class given is in vivo, rat (Wistar). To be noted: 0.5 h, 72 hour PCA, intravenous just before antigen, sacrificed 30 minutes after antigen challenge, read-out: ID50 (fifty % inhibitory dose for the leaked amount of the pigment). How it is done:
as §1
The antiallergic activities of the chromene derivatives of the present invention were tested in passive cutaneous anaphylaxis (hereinafter referred to as "PCA") by homocytotropic antibody (hereinafter referred to as "HTA").
DNP-As(2,4-dinitro phenyl-coupled Ascaris extract) was prepared according to the method by Strejan et al. (J. Immunol. Vol. 98, P 893, (1967)) and by Eisen (J. Amer. Chem. Soc. Vol. 75, P 4593, (1953)) to be used as antigen. Antiserum containing HTA was prepared by the method according to Tada and Okumura (J. Immunol. Vol. 106, P 1002, (1972)) as follows: i.e. spleen was taken out from Wistar female rat weighing 180 to 200 g and several days after 1 mg of DNP-As and 1×10^10 of Bordetella pertussis vaccine were injected into four footpads of the rat to induce senitization. After five days, again 0.5 mg of DNP-As was solely injected into the dorsal muscles. Eight days after priming, blood was taken by paracentesis of aorta under anesthetic condition with ether and the obtained antiserum was stored at -80° C.
Titer of the stored antiserum was determined by 72 hour PCA method in rat as described in the following item (2). The maximal dilution of the antiserum which can give a spot with a diameter of around 5 mm was usually 500 times.
The diluted antiserum (×30) was injected 0.05 ml/site intradermally into the shaved back of normal Wistar rat weighing 140 to 160 g. After 72 hours, 1 ml of physiological saline containing 2 mg of DNP-As and 2.5 mg of Evans blue was injected intravenously.
Test compound was dissolved in 0.5% aqueous solution of KHCO3, which was administered intravenously in an amount of 2 ml/kg just before the administration of the antigen. The animal was sacrificed 30 minutes after antigen challenge and the cutis was peeled off. The intensity of PCA was evaluated for the measurment of the leaked amount of the pigment. The leaked pigment was extracted according to the method by Harada et al. (Jpn. J. Allergol., Vol. 15, P 1, (1966)) and the leaked amount was measured by spectrophotometry. Fifty % inhibitory dose for the leaked amount of the pigment was regarded as ID50 value of the test compound.

Data set [2] deals with experimental asthma model of animals. Briefly: experimental asthma model of animals. The class given is in vivo.

Consider `O=C(O)CCCCCOc1ccc2cc(-c3nnn[nH]3)c(=O)oc2c1` [Compound E, 6-[2-oxo-3-(1H-tetrazole-5-yl)-2H-chromene-7-yloxy]hexanoic acid], for which the “MLD (Minimal Lethal Dose)” value in the data set on mouse is recorded as over 1500 mg/kg. Further, in data set [1], the ED50 is 0.2 mg/kg.
On to `O=C(O)CCCCCOc1cccc2cc(-c3nnn[nH]3)c(=O)oc12` [Compound D, 6-[2-oxo-3-(1H-tetrazole-5-yl)-2H-chromene-8-yloxy]hexanoic acid], for which the “MLD (Minimal Lethal Dose)” value in the data set with mouse is over 1600 mg/kg. Further, in data set [1], the ED50 came to 0.16 mg/kg.
For `O=C(O)CCCOc1cccc2cc(-c3nnn[nH]3)c(=O)oc12` [Compound B, 4-[2-oxo-3-(1H-tetrazole-5-yl)-2H-chromene-8 yloxy]butyric acid], the “inhibitory effect in experimental asthma model” value in data set [2] was “inhibitory effect in high degree”. For the same molecule, in the data set on mouse, the “MLD (Minimal Lethal Dose)” value is on record as over 1600 mg/kg. Further, in data set [1], the ED50 is 0.1 mg/kg.
Regarding `O=C(O)CCCCCOc1cccc2oc(=O)c(-c3nnn[nH]3)cc12` [Compound G, 6-[2-oxo-3-(1H-tetrazole-5-yl)-2H-chromene-5-yloxy]hexanoic acid], the “MLD (Minimal Lethal Dose)” value with mouse is given as over 1500 mg/kg. In addition, the ED50 in data set [1] was 0.2 mg/kg.
On to `O=C(O)COc1cccc2cc(-c3nnn[nH]3)c(=O)oc12` [Compound A, [2-oxo-3-(1H-tetrazole-5-yl)-2H-chromene-8-yloxy]acetic acid], for which the “MLD (Minimal Lethal Dose)” value with mouse was over 1000 mg/kg. The ED50 in data set [1] was 0.5 mg/kg.
Taken in the same sequence, the figures for `O=C(O)CCCCCOc1ccc2oc(=O)c(-c3nnn[nH]3)cc2c1` [Compound F, 6-[2-oxo-3-(1H-tetrazole-5-yl)-2H-chromene-6-yloxy]hexanoic acid] were over 1600 mg/kg and 0.16 mg/kg.
Taken in the same sequence, the figures for `O=C(O)CCCOc1ccc2oc(=O)c(-c3nnn[nH]3)cc2c1` [Compound C, 4-[2-oxo-3-(1H-tetrazole-5-yl)-2H-chromene-6-yloxy]butyric acid] were over 1500 mg/kg and 0.1 mg/kg.

The values are drawn from patent US4731375A, “Coumarin derivatives and antiallergic agents containing the same” (Kaken Pharmaceutical Co., Ltd., priority 1984, dated 1988).
